Experimental data published in publication PMC9084191 (European Journal of Pharmaceutics and Biopharmaceutics, 2022).
Read-outs that look alike come from different tables or passages of the source.

Assays:
[1] = Nucleation induction time measurement; format: physicochemical; conditions: for Induction time (tind): 37 °C, no polymer
[2] = Glass transition temperature by DSC; format: physicochemical; conditions: for Tg: neat drug, salt or polymer
Procedure: The glass transition temperatures (Tg) of drug, polymers and ASD samples were determined using a TA Q2000 DSC equipped with an RCS90 refrigeration unit (TA Instruments, New Castle, DE). The temperature calibration was performed using indium and tin, while enthalpy calibration was conducted with indium. Samples (5–10 mg) were added to aluminum pans with a pinhole lid (Tzero pan, TA Instrument, DE). […] The heating and cooling cycle was repeated 3 times to remove residual solvent and thermal history, and the last cycle was used for analysis.

[3] = Water sorption analysis; format: physicochemical; conditions: for Water sorption (%) at 95 % RH: 37 °C
Procedure: Water sorption profiles of DLM salts and ASDs were measured by using a SGA-100 symmetrical gravimetric analyzer (TA Instrument, New Castle, DE) at 37 °C. Samples (10–20 mg) were flushed with dry air for 3 h. After drying, samples were exposed to increasing relative humidity (RH) steps from 5 to 95% with a maximum step time of 180 min. Vapor sorption profiles are recorded as the equilibrium value (the weight change was below 0.001%/min over 5 min) at each RH.

[4] = Release testing of tablets, single-stage PBS pH 6.5; format: physicochemical; conditions: PBS pH 6.5, single stage
Procedure: (§1) The ASDs were mixed with excipients and compressed to obtain tablets containing 5 mg DLM with respect to the free base. All dissolution studies of DLM tablets were conducted in triplicate in single-stage or two-stage pH-shift condition using a Hanson Vision G2 Classic 6 dissolution system (Teledyne Hanson Research, Chatsworth, CA). For single-stage testing, the tablets containing the ASDs were added to 50 mL PBS, pH 6.5 and monitored for 1 h at 37° C, with 150 rpm of stirring. For pH-shift experiments, release in the acidic stage was conducted in 45 mL HCl solution pH 1.6 for 1 h, followed by addition of 5 mL concentrated PBS (pH 7.3) to adjust the pH of solution to pH 6.5 and drug release was monitored for an additional 30 min. An in situ Rainbow fiber optic ultraviolet spectrometer coupled with 10 mm fiber optic dip probes (Pion, Billerica, MA, USA) was used to monitor drug concentration over time. Second derivative analysis was applied to correct the spectral baseline and a calibration curve of area under curve (AUC) of the range 330–350 nm was used to calculate the drug concentration.

[5] = Release testing of tablets, two-stage pH-shift (pH 1.6 to 6.5); format: physicochemical
Procedure: as §1

[6] = Dynamic light scattering of DLM-rich nanodroplets; format: physicochemical; conditions: HPMCP and HPMCAS solutions 300 µg/mL, drug 50 µg/mL, PBS pH 6.5, 3-h period
Procedure: The size of DLM-rich droplets formed above the amorphous solubility was measured by dynamic light scattering (DLS) using a Nano-Zetasizer (Nano-ZS, Malvern Instruments, Westborough, MA). […] To evaluate the impact of polymers on nanodroplet stability, polymers were pre-dissolved in solution at a concentration of 300 μg/mL and drug was introduced at 50 μg/mL. Samples were monitored for up to 3 h after liquid–liquid phase separation was initiated.

[7] = cited from earlier work
[8] = design: method as in PMID 24881816; conditions: predicted log P calculated by ALOGPS; cited from earlier work
[9] = cited from earlier work; remark: listed apart in the source
[10] = design: method as in earlier work; conditions: predicted pKa; cited from earlier work
[11] = Stability on storage at 40 °C/75% RH (PXRD, 19F NMR, HPLC); format: physicochemical; conditions: 2 weeks, 40 °C/RH 75%; for Drug content reduction (%): HPLC
Procedure: The salt form of DLM was prepared using a Buchi Rotavapor-R (Newcastle, Delaware). DLM free base and sulfonic acid were added at drug-acid 1:1 molar ratio in a mixture of DCM and acetone (1:1 v/v) where alcoholic solvents were avoided to prevent the formation of alkyl esters during salt synthesis. Solvents were removed by rotary evaporation at 40 °C. DLM salts were then kept under vacuum at room temperature overnight to remove residual solvents. DLM salts were characterized by ^1H-nuclear magnetic resonance (NMR) spectroscopy to confirm salt formation. Their physical and chemical stability were monitored following storage at 40 °C/75% relative humidity (RH) by measuring several physicochemical properties, including crystallinity (by powder X-ray diffraction, PXRD), impurities (by ^19F NMR spectroscopy), drug content (by HPLC as described above) and hygroscopicity (using dynamic vapor sorption analysis).
(§2) Crystallinity of ASDs and DLM salts was evaluated using a Rigaku Smartlab diffractometer (Rigaku Americas, The Woodlands, TX) equipped with a Cu–Kα radiation source and a D/tex ultradetector. Samples were added to glass sample holders, and powder patterns were recorded over the range of 4-40° 2θ at a scanning speed of 4° per min and a 0.02° step size with the voltage and current set to 40 kV and 44 mA, respectively.
Salt formation was confirmed by ^1H nuclear magnetic resonance (NMR) spectroscopy and impurities in DLM salts following preparation and storage were detected by ^19F NMR spectroscopy. Samples were dissolved in dimethyl sulfoxide-d6 (Cambridge Isotope Laboratories, Inc., Andover, MA) at a concentration of 20 mg/mL. All NMR spectra were acquired on a Bruker DRX 500 MHz spectrometer (Karlsruhe, Germany) equipped with a BBFO z-gradient probe operating at room temperature. For ^1H NMR spectra, the spectral sweep width was 20 ppm, acquisition time was 1.6 sec and number of scans was 16. For ^19F NMR spectroscopy, ^1H was decoupled during acquisition, spectral sweep width was 50 ppm, acquisition time was 1.4 sec and the number of scans was 64.

[12] = Crystallinity by PXRD following preparation; format: physicochemical; conditions: immediately following preparation
Procedure: as §2

[13] = value of the strongest acidity, ref [3, 4] of supplement
[14] = value of the strongest acidity, ref [2] of supplement

## C[C@]1(COc2ccc(N3CCC(Oc4ccc(OC(F)(F)F)cc4)CC3)cc2)Cn2cc([N+](=O)[O-])nc2O1 [Delamanid]
[1]; PBS pH 6.5, Eud-L100 300 µg/mL
  Induction time: 10.2 ± 3.1 min
[1]; PBS pH 6.5, HPMC 300 µg/mL
  Induction time: about 50 min
[1]; PBS pH 6.5, HPMCAS 300 µg/mL
  Induction time: more than 1000 min
[1]; PBS pH 6.5, HPMCP 300 µg/mL
  Induction time: more than 1000 min
[1]; PBS pH 6.5, PVPVA 300 µg/mL
  Induction time: more than 1000 min
[1]; in presence of PVPVA, HPMCAS or HPMCP
  Induction time: > 720 min
[2]; cooling from the melt at 50 °C/min
  Glass forming ability class: Class I
[2]
  Tg: 43.3 °C
[2]; listed as delamanid free base
  Tg: 43.3 ± 0.4 °C
[3]
  Hygroscopicity (in words): non-hygroscopic
[4]
  Drug release (in words): no release was detected
[5]; pH-shift experiment, low pH (1.6) stage
  Drug concentration released in acid stage: around 20 µg/mL
[6]
  Nanodroplet size change: no notable change
[7]
  Log P: 5.67
[8]
  Log P: 6.14
[9]
  pKa: 4.3
[10]
  pKa: 3.99

## O=S(=O)(O)c1cccc2c(S(=O)(=O)O)cccc12 [Naphthalenedisulfonic, 1,5-naphthalenedisulfonic acid]
[9]; [13]
  pKa: 0.17 [3, 4]

## Tosylate
[1]; FaSSGF (pH 1.6), at amorphous solubility
  Induction time (tind): 1.0 min
[1]; PBS pH 6.5, at amorphous solubility
  Induction time (tind): 18.5 min
[2]
  Tg: 90.2 °C
[3]
  Water sorption (%) at 95 % RH: 6.1%
[11]
  Impurity (19F NMR) (%): 1.0%
  Liquefaction: liquefaction
  Drug content reduction (%): 2.1%

## O.O.O=S(=O)(O)CCS(=O)(=O)O [Ethanedisulfonic, 1,2-Ethanedisulfonic acid dihydrate]
[9]; [13]
  pKa: -2.1 [3, 4]

## O=S(=O)(O)c1ccccc1 [Benzenesulfonic, benzenesulfonic acid]
[9]; [14]
  pKa: -2.8

## O=S(=O)(O)c1ccc(Cl)cc1 [Chlorobenzenesulfonic, 4-chlorobenzenesulfonic acid]
[9]; value of the strongest acidity, ref [5] of supplement
  pKa: -0.61 [5]

## CC1(C)[C@@H]2CC[C@@]1(CS(=O)(=O)O)C(=O)C2.C[C@]1(COc2ccc(N3CCC(Oc4ccc(OC(F)(F)F)cc4)CC3)cc2)Cn2cc([N+](=O)[O-])nc2O1 [Camsylate]
[2]
  Tg: 97.9 °C
[3]
  Water sorption (%) at 95 % RH: 8.1%
[11]
  Impurity (19F NMR) (%): 2.0%
  Drug content reduction (%): 6.1%

## CC1(C)C2CC[C@@]1(CS(=O)(=O)O)C(=O)C2 [Camphorsulfonic, (1S)-(+)-10-camphorsulfonic acid]
[9]; value of the strongest acidity, ref [6] of supplement
  pKa: 1.2 [6]

## CCS(=O)(=O)O [Ethanesulfonic, Ethanesulfonic acid]
[9]; [14]
  pKa: -1.68
[9]; value of the strongest acidity, ref [3] of supplement
  pKa: -2.05

## C[C@]1(COc2ccc(N3CCC(Oc4ccc(OC(F)(F)F)cc4)CC3)cc2)Cn2cc([N+](=O)[O-])nc2O1.C[C@]1(COc2ccc(N3CCC(Oc4ccc(OC(F)(F)F)cc4)CC3)cc2)Cn2cc([N+](=O)[O-])nc2O1.O=S(=O)(O)CCS(=O)(=O)O [Edisylate (2:1)]
[2]
  Tg: 117.8 °C
[3]
  Water sorption (%) at 95 % RH: 11.6%
[11]
  Impurity (19F NMR) (%): 1.0%
  Drug content reduction (%): 0.8%
[4]
  Drug release (in words): no release
[5]; acid stage of pH-shift experiment
  Release in acidic medium (in words): slightly higher than that observed for DLM free base

## C[C@]1(COc2ccc(N3CCC(Oc4ccc(OC(F)(F)F)cc4)CC3)cc2)Cn2cc([N+](=O)[O-])nc2O1.O=S(=O)(O)CCS(=O)(=O)O [DLM-edisylate (1:1)]
[2]
  Tg: 53.9 °C
[3]
  Water sorption (%) at 95 % RH: 59%

## C[C@]1(COc2ccc(N3CCC(Oc4ccc(OC(F)(F)F)cc4)CC3)cc2)Cn2cc([N+](=O)[O-])nc2O1.O=S(=O)(O)c1ccc(Cl)cc1 [Closylate]
[2]
  Tg: 90.1 °C
[3]
  Water sorption (%) at 95 % RH: 5.8%
[11]
  Impurity (19F NMR) (%): 2.3%
  Liquefaction: liquefaction
  Drug content reduction (%): 3.1%

## CC1(COc2ccc(N3CCC(Oc4ccc(OC(F)(F)F)cc4)CC3)cc2)Cn2cc([N+](=O)[O-])nc2O1.CC1(COc2ccc(N3CCC(Oc4ccc(OC(F)(F)F)cc4)CC3)cc2)Cn2cc([N+](=O)[O-])nc2O1.O=S(=O)(O)c1cccc2c(S(=O)(=O)O)cccc12 (stereo not shown) [Napadisylate (2:1)]
[12]
  Crystallinity by PXRD (in words): partial crystallization
